Read-outs that look alike come from different tables or passages of the source. Where a SMILES comes first, the peptide text is derived from it. Where no end group is shown, it is not given here.
Legend:
[1] = system: yeast (Saccharomyces cerevisiae); assay: Disc diffusion assay of yeast growth inhibition (FIG. 1 A-G); assay type: cell-based
From the text: The data shown in FIG. 1(h)-(n) are for the highly resistant yeast Candida glabrata which is difficult to treat due to its high intrinsic resistance to traditional antifungals. The data shown in FIGS. 1(o)-(u) are for Candida albicans. As above, the panels (h) through (u) show the effect of an echinocandin compound, an antimicrobial peptide and a combination of the two on Candida glabrata and Candida albicans.
Sterile filter paper discs (6 mm, Aa, Whatman) were impregnated with either, peptides or caspofungin alone, or peptides and caspofungin together, and left in sterile Petri dishes overnight at room temperature to dry. Following this, 100 μl of mid-exponential phase culture of yeast was spread onto the surface of MEB, pH 7 plus 2% agarose plates and left to dry for 1 h at room temperature. MEB plates were made with 2% agarose rather than agar because the agar inhibited the action of the antimicrobial peptides. Discs containing the various antifungal combinations were then applied to the surface and the plates were incubated at 30° C. for 48 h. Images showing the zones of inhibition were obtained by scanning the plates using an ImageScanner (GE Healthcare UK Ltd, Chalfont St Giles, UK) with ImageMaster Labscan v 3.00 software (GE Healthcare UK Ltd). Images were annotated using Microsoft PhotoDraw.

C. albicans SC5314 = assay type: cell-based, Candida albicans; settings: RPMI-1640, <0.5 synergy, >4 antagonism, 0.5 to 4 no interaction
Method: (§1) 96-well micro-titre plate (Greiner Bio-one Ltd, Stonehouse, UK) wells were filled with 150 μl MEB or RPMI-1640, 2% MOPS (Sigma), pH 7 and concentrations of either peptides or caspofungin alone, or combinations of peptides with caspofungin. Approximately 500 cells from mid-exponential phase cultures of the yeast strains described above were then added to each well. Plates were incubated at 30° C. for 48 hours and scanned as described above.
(§2) Fractional inhibitory concentration (FIC) indices for combinations of caspofungin or anidulafungin with various antimicrobial peptides calculated from chequerboard assays of visible growth inhibition of three Candida strains tested in RPMI-1640. IC values highlighted in grey indicate combinations where no synergy was observed. Fractional Inhibitory Concentration (FIC)=[…] where <0.5 synergy, >4 antagonism and 0.5 to 4 no interaction. (Odds, F. C. (2003) Synergy, antagonism, and what the chequerboard puts between them. J. Antimic. Chemother.) N/A—not tested.

yeast = assay: Liquid culture assay of yeast growth inhibition, OD600 growth curves (FIG. 4); assay type: cell-based; settings: sub-inhibitory peptide combined with sub-inhibitory caspofungin
Method: The lines represent: Blue—untreated yeast culture alone; Yellow—yeast culture in the presence of a subinhibitory concentration of caspofungin alone; Green—yeast culture in the presence of a subinhibitory concentration of an antimicrobial peptide alone; Red—culture in the presence of a combination of sub-inhibitory caspofungin with sub-inhibitory peptide.
Sterile MEB, pH 7 was added (300 μl) to each well of 48-well microtitre plate (Greiner Bio-one Ltd, Stonehouse, UK) followed by appropriate concentrations of each peptide alone, caspofungin alone and various combinations of peptides with caspofungin. The wells were then inoculated with mid-exponential phase yeast cultures to give starting cell numbers of 1000 cells per well. […] OD600 readings were taken every 15 minutes. Data was analysed in Microsoft Excel.

[2] = system: C. albicans (Hospital isolate); assay type: cell-based, Candida albicans; settings: RPMI-1640, <0.5 synergy, >4 antagonism, 0.5 to 4 no interaction
Method: as §1, §2

[3] = system: C. glabrata (Hospital isolate); assay type: cell-based, Candida glabrata; settings: RPMI-1640, <0.5 synergy, >4 antagonism, 0.5 to 4 no interaction
Method: as §1, §2

[4] = substance alone, at the concentrations displayed
[5] = peptide combined with anidulafungin
[6] = peptide combined with caspofungin
[7] = peptide applied together with caspofungin

Compound | zones of clearing around impregnated filter paper discs on agar plates [1, 4] | Fractional inhibitory concentration (FIC) index (C. albicans SC5314; [5]) | Fractional inhibitory concentration (FIC) index (C. albicans SC5314; [6]) | zones of clearing around impregnated filter paper discs on agar plates [1, 7] | yeast growth (OD600) over 24 h in microtitre plate wells (yeast) | Fractional inhibitory concentration (FIC) index [2, 5] | Fractional inhibitory concentration (FIC) index [2, 6] | Fractional inhibitory concentration (FIC) index [3, 5] | Fractional inhibitory concentration (FIC) index [3, 6]
CC[C@H](C)C[C@H](C)CCCCCCCCC(=O)N[C@H]1C[C@@H](O)[C@@H](NCCN)NC(=O)[C@@H]2[C@@H](O)CCN2C(=O)[C@H]([C@H](O)CCN)NC(=O)[C@H]([C@H](O)[C@@H](O)c2ccc(O)cc2)NC(=O)[C@@H]2C[C@@H](O)CN2C(=O)[C@H]([C@@H](C)O)NC1=O [caspofungin, 1-[(4R,5S)-5[(2-aminoethyl)amino]-N^2-(10,12-dimethyl-1-oxotetradecyl)-4-hydroxy-L-ornithine]-5-[(3R)-3-hydroxy-L-ornithine]pneumocandin B0] | no zones of clearing | – | – | – | – | – | – | – | –
Polymyxin B | – | 0.590 | 0.310 | – | – | – | – | – | –
CC[C@H](C)[C@H](NC(=O)[C@H](CCSC)NC(=O)[C@H](C)NC(=O)[C@@H]1CCCN1C(=O)[C@@H](NC(=O)[C@@H](NC(=O)[C@H](CCCCN)NC(=O)[C@@H](NC(=O)[C@H](CC(C)C)NC(=O)CNC(=O)CNC(=O)[C@H](CC(C)C)NC(=O)[C@@H](N)Cc1ccccc1)[C@@H](C)CC)[C@@H](C)CC)C(C)C)C(=O)N[C@H]1CSSC[C@@H](C(=O)O)NC(=O)[C@H](CCCCN)NC(=O)[C@H](CCCCN)NC(=O)[C@H]([C@@H](C)O)NC(=O)[C@H](C(C)C)NC(=O)[C@H](C)NC1=O [Ranalexin, ranalexin] (HELM PEPTIDE1{F.L.G.G.L.I.K.I.V.P.A.M.I.C.A.V.T.K.K.C}$PEPTIDE1,PEPTIDE1,14:R3-20:R3$$$V2.0; N-terminus and C-terminus assumed; bridges inferred) | minimal effect on yeast growth | – | – | very clear zones of clearing | complete abolition of yeast growth | – | – | – | –
GIGKFLHSAKKFGKAFVGEIMNS [Magainin 2, magainin 2] | minimal effect on yeast growth | 0.095 | 0.144 | very clear zones of clearing | complete abolition of yeast growth | 0.087 | 0.135 | 0.376 | 0.278
ALWKNMLKGIGKLAGK [DsS3(1-16), dermaseptin S3(1-16)] | no zones of clearing visible | – | – | Evident zones of clearing | complete abolition of yeast growth | – | – | – | –
Colistin sulfate | – | 0.230 | 0.249 | – | – | – | – | – | –

From patent US20110281788A1, “ANTI FUNGAL THERAPY” (priority 2008, published 2011)
